Read-outs that look alike come from different tables or passages of the source.
Tests used:
[1] = Cytotoxicity against non-tumorigenic Vero cell line; assay type: cell-based; details: African green monkey, Vero cells (non-tumorigenic), read-out: IC50 Vero (cytotoxic activity)
PANC1 cell line = assay: MTT anti-proliferative assay, PANC1; assay type: cell-based, human; details: for IC50: MTT, 48 h exposure, mean ± S.D., 3 separate experiments
Procedure: (§1) 1. Anti-proliferative activity against HepG2 and PANC1 cancer cell lines
(§2) American Type Culture Collection (ATCC). Cells lines were maintained as monolayers in Dulbecco’s Modified Eagle’s Medium (DMEM) supplemented with 10% FBS, 2 mM L-glutamine, 100 U/ml penicillin and 100µg/ml streptomycin sulfate. Cells were sub-cultured with trypsine /EDTA solution, counted with haemocytometer and plated onto 96-well plates (5000 cells/well) and left overnight to form a semi-confluent monolayer. Cell monolayers were treated in quadrates with vehicle (DMSO, 0.1% v/v), and test samples […]
end of exposure, MTT solution in PBS (5 mg/ml) was then added to all well including no cell blank and left to incubate for 90 min. The formation of formazan crystals were visually confirmed using phase contract microscopy. DMSO (100 µl/well) was added to dissolve the formazan crystals with shaking for 10 min after which the absorbance was read at 590 nm against no cell blanks on a FLuo Star Optima microplate reader (BMG technologies, Germany). Cell proliferation was calculated comparing the OD values of the DMSO control wells and those of the samples represented as % proliferation to the control. Dose-response experiment was performed on samples producing > or =50% loss of cell […]
(§3) vehicle control) were calculated using non-linear regression curve fitting of the dose response plots on GraphPad Prism V.6.0 software.

HepG2 cell line = assay: MTT anti-proliferative assay, HepG2; assay type: cell-based, human; details: mean ± S.D., 3 separate experiments
Procedure: as §1, §2
end of exposure, MTT solution in PBS (5 mg/ml) was then added to all well including no cell blank and left to incubate for 90 min. The formation of formazan crystals were visually confirmed using phase contract microscopy. DMSO (100 µl/well) was added to dissolve the formazan crystals with shaking for 10 min after which the absorbance was read at 590 nm against no cell blanks on a FLuo Star Optima microplate reader (BMG technologies, Germany). Cell proliferation was calculated comparing the OD values of the DMSO control wells and those of the samples represented as % proliferation to the control. Dose-response experiment was performed on samples producing > or =50% loss of cell proliferation using five serial 2-fold dilutions (50, 25, 12.5, 6.25 and 3.125 µM) of the […]
as §3

Vero cell line = assay: Cytotoxicity against non-tumorigenic Vero cell line; assay type: cell-based; details: read-out: IC50 Vero (cytotoxic activity)
VEGFR-2 [2] = target: T1, VEGFR-2 (Homo sapiens, UniProt P35968); assay: biochemical
T1 sequence (P35968 20-1356): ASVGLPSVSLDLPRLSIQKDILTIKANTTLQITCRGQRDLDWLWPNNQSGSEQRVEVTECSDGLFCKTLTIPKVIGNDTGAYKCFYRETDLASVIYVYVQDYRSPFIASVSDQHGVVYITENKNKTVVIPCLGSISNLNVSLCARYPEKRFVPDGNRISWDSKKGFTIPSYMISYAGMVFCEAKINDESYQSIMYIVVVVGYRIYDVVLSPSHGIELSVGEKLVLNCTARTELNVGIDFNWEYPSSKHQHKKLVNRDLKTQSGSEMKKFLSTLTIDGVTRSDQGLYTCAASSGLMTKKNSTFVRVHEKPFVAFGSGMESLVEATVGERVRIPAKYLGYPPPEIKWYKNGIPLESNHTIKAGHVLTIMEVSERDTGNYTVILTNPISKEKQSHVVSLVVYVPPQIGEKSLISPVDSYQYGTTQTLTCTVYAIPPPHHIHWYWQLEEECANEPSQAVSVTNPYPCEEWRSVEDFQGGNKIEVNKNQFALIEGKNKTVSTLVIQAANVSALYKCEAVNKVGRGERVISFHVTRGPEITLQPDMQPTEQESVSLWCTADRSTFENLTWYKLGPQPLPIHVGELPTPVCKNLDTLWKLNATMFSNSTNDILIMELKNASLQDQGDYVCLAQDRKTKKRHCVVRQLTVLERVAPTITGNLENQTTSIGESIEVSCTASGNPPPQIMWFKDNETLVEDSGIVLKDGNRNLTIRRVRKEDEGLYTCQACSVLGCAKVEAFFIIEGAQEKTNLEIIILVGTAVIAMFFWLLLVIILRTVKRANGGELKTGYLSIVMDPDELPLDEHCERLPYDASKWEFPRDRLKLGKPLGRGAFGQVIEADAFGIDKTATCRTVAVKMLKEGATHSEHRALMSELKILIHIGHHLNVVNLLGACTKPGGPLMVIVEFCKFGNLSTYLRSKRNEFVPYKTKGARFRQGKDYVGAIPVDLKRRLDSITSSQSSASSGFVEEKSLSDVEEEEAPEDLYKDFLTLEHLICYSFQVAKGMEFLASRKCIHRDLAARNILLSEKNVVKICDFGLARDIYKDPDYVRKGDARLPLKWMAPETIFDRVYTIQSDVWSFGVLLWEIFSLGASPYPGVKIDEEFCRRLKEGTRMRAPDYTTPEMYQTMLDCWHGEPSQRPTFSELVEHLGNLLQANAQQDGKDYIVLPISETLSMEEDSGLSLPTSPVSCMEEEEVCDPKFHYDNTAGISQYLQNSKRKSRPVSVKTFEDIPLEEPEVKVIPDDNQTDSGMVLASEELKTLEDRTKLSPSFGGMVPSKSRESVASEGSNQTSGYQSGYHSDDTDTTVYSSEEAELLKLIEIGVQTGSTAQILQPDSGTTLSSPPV
Procedure: (§4) In brief, the master mixture was produced (25 μL per well) and poured into
(§5) each well. Each well received 5 μL of inhibitor solution designated as "Test Inhibitor". The "Positive Control" and "Blank" groups received 5 μL of the same solution without the
(§6) inhibitor (Inhibitor buffer). In order to prepare 3 mL of kinase buffer, 600 μL of kinase
(§7) buffer were combined with 2400 μL of water. The blank wells received 20 μL of kinase
(§8) buffer. The amount of VEGFR-2 required for the test was measured and the enzyme was
(§9) diluted to 1 ng/ μL with kinase buffer. 20 μL of diluted VEGFR-2 enzymes was added to
(§10) the wells designated as "Test Inhibitor Control” and “Positive Control” to start the reaction
(§11) and the mixtures were incubated at 30 °C for 45 minutes. After the 45 minutes, each well received 50 μL of KinaseGlo Max reagent and the plate was incubated at room temperature
(§12) for 15 minutes. The luminescence was measured with a microplate reader.

VEGFR-2 [3] = target: T1, VEGFR-2; set-up: purchased BPS Bioscience 40325; method as in PMID 35217379; details: cited from earlier work
VEGFR-2 [4] = target: T1, VEGFR-2; assay: VEGFR-2 Kinase Assay Kit (BPS Bioscience)
Procedure: as §4, §5, §6, §7, §8, §9, §10, §11, §12

HepG2 = tested on: HepG2; set-up: method as in doi:10.1016/j.molstruc.2021.131832; details: hepatocellular cell line HepG2; cited from earlier work
VEGFR-2 [5] = target: T1, VEGFR-2; set-up: purchased BPS Bioscience 40325; method as in doi:10.1016/j.molstruc.2021.131832; details: cited from earlier work
[6] = Homo sapiens, HepG2, 48 h exposure

Row | IC50 (PANC1 cell line; Homo sapiens, PANC-1) | IC50 (HepG2 cell line; [6]) | Structure (SMILES) | other results
1 | 200 nM | 580 ± 10 nM | CC(=O)Nc1ccc(-c2nc(C(=O)NN=C3C(=O)N(C)c4ccccc43)nn2-c2ccc(Cl)cc2)cc1 [14c, N-{4-[1-(4-Chlorophenyl)-3-{N′-[1-methyl-2-oxo-2,3-dihydro-1H-indol-3-ylidene]hydrazinecarbonyl}-1H-1,2,4-triazol-5-yl]phenyl}acetamide] | IC50 [1]: 7920 ± 480 nM
2 | 4290 ± 100 nM | 2060 ± 30 nM | CC(=O)Nc1ccc(-c2nc(C(=O)NN=C3C(=O)Nc4ccccc43)nn2-c2ccc(F)cc2)cc1 [11a, N-{4-[1-(4-Fluorophenyl)-3-{N′-[2-oxo-2,3-dihydro-1H-indol-3-ylidene]hydrazinecarbonyl}-1H-1,2,4-triazol-5-yl]phenyl}acetamide] | –
3 | 2220 ± 70 nM | 760 ± 20 nM | COc1ccc2c(c1)C(=NNC(=O)c1nc(-c3ccc(NC(C)=O)cc3)n(-c3ccc(F)cc3)n1)C(=O)N2 [11e, N-{4-[1-(4-Fluorophenyl)-3-{N′-[5-methoxy-2-oxo-2,3-dihydro-1H-indol-3-ylidene]hydrazinecarbonyl}-1H-1,2,4-triazol-5-yl]phenyl}acetamide] | IC50 [1]: 8350 ± 620 nM; IC50 (Vero cell line): 11700 ± 930 nM; IC50 (VEGFR-2 [2]): 48.4 ± 0.39 nM
4 | – | – | Cc1ccc(NC(=O)CSc2nnc(Cn3c(=O)c(C)nc4ccccc43)n2C)cc1 [I] | IC50 (VEGFR-2 [3]): 60 nM
5 | 980 ± 60 nM | 2210 ± 30 nM | CC(=O)Nc1ccc(-c2nc(C(=O)NN=C3C(=O)Nc4ccc(Cl)cc43)nn2-c2ccc(F)cc2)cc1 [11c, N-[4-(3-{N′-[5-Chloro-2-oxo-2,3-dihydro-1H-indol-3-ylidene]hydrazinecarbonyl}-1-(4-fluorophenyl)-1H-1,2,4-triazol-5-yl)phenyl]acetamide] | –
6 | 4050 ± 100 nM | 1630 ± 20 nM | CC(=O)Nc1ccc(-c2nc(C(=O)NN=C3C(=O)N(C)c4ccccc43)nn2-c2ccc(F)cc2)cc1 [14a, N-{4-[1-(4-Fluorophenyl)-3-{N′-[1-methyl-2-oxo-2,3-dihydro-1H-indol-3-ylidene]hydrazinecarbonyl}-1H-1,2,4-triazol-5-yl]phenyl}acetamide] | –
7 | 3750 ± 90 nM | 4490 ± 150 nM | CC(=O)Nc1ccc(-c2nc(C(=O)NN=C3C(=O)Nc4ccc(Cl)cc43)nn2-c2ccc(Cl)cc2)cc1 [11i, N-[4-(3-{N′-[5-Chloro-2-oxo-2,3-dihydro-1H-indol-3-ylidene]hydrazinecarbonyl}-1-(4-chlorophenyl)-1H-1,2,4-triazol-5-yl)phenyl]acetamide] | –
8 | – | – | COc1cccc2c1C(=O)c1c(O)c3c(c(O)c1C2=O)C[C@@](O)(C(=O)CO)C[C@@H]3O[C@H]1C[C@H](N)[C@H](O)[C@H](C)O1 [Dox., reference compound] | IC50 (PANC1 cell line): 190 ± 10 nM; IC50 (HepG2 cell line; 48 h exposure): 430 ± 20 nM
9 | 420 ± 10 nM | 920 ± 20 nM | CC(=O)Nc1ccc(-c2nc(C(=O)NN=C3C(=O)N(Cc4ccccc4)c4ccc(Br)cc43)nn2-c2ccc(Cl)cc2)cc1 [14d, N-[4-(3-{N′-[1-Benzyl-5-bromo-2-oxo-2,3-dihydro-1H-indol-3-ylidene]hydrazinecarbonyl}-1-(4-chlorophenyl)-1H-1,2,4-triazol-5-yl)phenyl]acetamide] | –
10 | 220 ± 10 nM | 1270 ± 40 nM | CC(=O)Nc1ccc(-c2nc(C(=O)NN=C3C(=O)Nc4ccc(F)cc43)nn2-c2ccc(Cl)cc2)cc1 [11h, N-{4-[1-(4-Chlorophenyl)-3-{N′-[5-fluoro-2-oxo-2,3-dihydro-1H-indol-3-ylidene]hydrazinecarbonyl}-1H-1,2,4-triazol-5-yl]phenyl}acetamide] | fold improvement of efficacy against PANC1 compared to 11b (PANC1 cell line; versus fluorinated-phenyl counterpart 11b): 8 fold; melting point: > 300 °C
11 | 1680 ± 60 nM | 1010 ± 20 nM | CC(=O)Nc1ccc(-c2nc(C(=O)NN=C3C(=O)Nc4ccc(Br)cc43)nn2-c2ccc(Cl)cc2)cc1 [11j, N-[4-(3-{N′-[5-Bromo-2-oxo-2,3-dihydro-1H-indol-3-ylidene]hydrazinecarbonyl}-1-(4-chlorophenyl)-1H-1,2,4-triazol-5-yl)phenyl]acetamide] | –
12 | 230 ± 10 nM | 2410 ± 40 nM | CC(=O)Nc1ccc(-c2nc(C(=O)NN=C3C(=O)Nc4ccc([N+](=O)[O-])cc43)nn2-c2ccc(F)cc2)cc1 [11f, N-{4-[1-(4-Fluorophenyl)-3-{N′-[5-nitro-2-oxo-2,3-dihydro-1H-indol-3-ylidene]hydrazinecarbonyl}-1H-1,2,4-triazol-5-yl]phenyl}acetamide] | –
13 | 1780 ± 40 nM | 730 ± 10 nM | COc1ccc2c(c1)C(=NNC(=O)c1nc(-c3ccc(NC(C)=O)cc3)n(-c3ccc(Cl)cc3)n1)C(=O)N2 [11k, N-{4-[1-(4-Chlorophenyl)-3-{N′-[5-methoxy-2-oxo-2,3-dihydro-1H-indol-3-ylidene]hydrazinecarbonyl}-1H-1,2,4-triazol-5-yl]phenyl}acetamide] | IC50 [1]: 13200 ± 1090 nM; times increase of VEGFR-2 activity compared to 11g (VEGFR-2 [4]; versus unsubstituted indolin-2-one 11g): approximately 3 times; IC50 (VEGFR-2 [2]): 41.3 ± 0.31 nM
14 | – | – | CCOC(=O)/C(=N\Nc1ccc(Cl)cc1)Sc1nnc(C(F)(F)F)n1/N=C/c1ccc(OC)cc1 [II] | IC50 (HepG2): 10000 nM; IC50 (VEGFR-2 [5]): 74 nM
15 | 1160 ± 20 nM | 730 ± 20 nM | CC(=O)Nc1ccc(-c2nc(C(=O)NN=C3C(=O)Nc4ccc(Br)cc43)nn2-c2ccc(F)cc2)cc1 [11d, N-[4-(3-{N′-[5-Bromo-2-oxo-2,3-dihydro-1H-indol-3-ylidene]hydrazinecarbonyl}-1-(4-fluorophenyl)-1H-1,2,4-triazol-5-yl)phenyl]acetamide] | IC50 [1]: 11700 ± 930 nM; IC50 (Vero cell line): 8350 ± 620 nM; fold enhancement of efficacy against VEGFR-2 compared to 11e (VEGFR-2 [4]; 5-Br versus 5-OCH3 (11e)): approximately 3 fold; IC50 (VEGFR-2 [2]): 16.3 ± 0.42 nM
16 | 770 ± 20 nM | 710 ± 10 nM | CC(=O)Nc1ccc(-c2nc(C(=O)NN=C3C(=O)Nc4ccccc43)nn2-c2ccc(Cl)cc2)cc1 [11g, N-{4-[1-(4-Chlorophenyl)-3-{N′-[2-oxo-2,3-dihydro-1H-indol-3-ylidene]hydrazinecarbonyl}-1H-1,2,4-triazol-5-yl]phenyl}acetamide] | IC50 [1]: 10600 ± 710 nM
17 | 170 ± 10 nM | 1730 ± 60 nM | CC(=O)Nc1ccc(-c2nc(C(=O)NN=C3C(=O)Nc4ccc([N+](=O)[O-])cc43)nn2-c2ccc(Cl)cc2)cc1 [11l, N-{4-[1-(4-Chlorophenyl)-3-{N′-[5-nitro-2-oxo-2,3-dihydro-1H-indol-3-ylidene]hydrazinecarbonyl}-1H-1,2,4-triazol-5-yl]phenyl}acetamide] | –
18 | 760 ± 40 nM | 980 nM | CC(=O)Nc1ccc(-c2nc(C(=O)NN=C3C(=O)N(Cc4ccccc4)c4ccc(Br)cc43)nn2-c2ccc(F)cc2)cc1 [14b, N-[4-(3-{N′-[1-Benzyl-5-bromo-2-oxo-2,3-dihydro-1H-indol-3-ylidene]hydrazinecarbonyl}-1-(4-fluorophenyl)-1H-1,2,4-triazol-5-yl)phenyl]acetamide] | –
19 | 1740 ± 20 nM | 1170 ± 30 nM | CC(=O)Nc1ccc(-c2nc(C(=O)NN=C3C(=O)Nc4ccc(F)cc43)nn2-c2ccc(F)cc2)cc1 [11b, N-[4-(3-{N′-[5-Fluoro-2-oxo-2,3-dihydro-1H-indol-3-ylidene]hydrazinecarbonyl}-1-(4-fluorophenyl)-1H-1,2,4-triazol-5-yl)phenyl]acetamide] | –

— PMC10820444, “1,2,4-Triazole-Tethered Indolinones as New Cancer-Fighting Small Molecules Targeting VEGFR-2: Synthesis, Biological Evaluations and Molecular Docking” (Pharmaceuticals, 2024)
